# Laboratory results from US8318782B2, “Mitotic kinesin inhibitor” (Kyowa Hakko Kirin Co., Ltd., priority 2003, dated 2012).
# Molecular target: T1, human Eg5 motor domain (Homo sapiens, UniProt P52732)
# T1 construct: A plasmid expressing the motor domain of human Eg5 was constructed; made in house; host or cells: Escherichia coli BL21 (DE3)
# T1 sequence (P52732 18-359 limits assumed): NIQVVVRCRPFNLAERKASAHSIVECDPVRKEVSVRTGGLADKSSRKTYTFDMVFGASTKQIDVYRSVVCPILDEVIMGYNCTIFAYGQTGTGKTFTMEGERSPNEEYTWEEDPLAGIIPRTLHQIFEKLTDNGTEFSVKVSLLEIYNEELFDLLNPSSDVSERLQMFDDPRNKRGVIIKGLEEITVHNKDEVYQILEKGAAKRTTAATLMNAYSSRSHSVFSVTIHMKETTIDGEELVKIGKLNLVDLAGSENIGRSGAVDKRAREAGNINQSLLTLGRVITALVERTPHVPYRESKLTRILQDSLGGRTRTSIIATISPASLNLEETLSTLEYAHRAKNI
# Assay: Eg5 enzyme inhibition test (2) (ATPase activity, Eg5 motor domain)
# Assay type: biochemical
# Details: human Eg5 motor domain purified sample, 30° C. for 30 minutes, absorbance at 360 nm
# Description: A recombinant human Eg5 motor domain protein was prepared by referring to the literature [Biochemistry, Vol. 35, p. […] A plasmid expressing the motor domain of human Eg5 was constructed, and transformed into Escherichia coli BL21 (DE3). The transformant was cultured at 25° C., and when OD600 reached 0.74, isopropyl-β-D-thiogalactoside was added at a final concentration of 0.5 mmol/L. The transformant was further cultured for 4 hours, and then the culture medium was centrifuged to collect the cells. The cells were suspended in a buffer and ultrasonicated, and then the sonicated solution was centrifuged to recover the supernatant. The supernatant was purified by cation exchange column chromatography to obtain a partially-purified sample. Furthermore, the partially purified sample was purified by gel filtration column chromatography to obtain a finally purified sample.
# Measurement of the ATPase activity of Eg5 was carried out by referring to the literatures EEMBO Journal, Vol. 13, p. […] Solution A was dispensed into each well of a 96-well plate as 45 μL portions. Solution B was used to serially dilute a test compound. The diluted test compound solutions in a volume of 30 μL were mixed with Solution A added beforehand in each well of the 96-well plate to start the enzymatic reaction. The enzymatic reaction was performed at 30° C. for 30 minutes.
row,SMILES,IC50
1,CC(=O)NC1=NN(C(C)=O)C(C)(c2sccc2Cl)S1 (stereo not shown) [Compound 134],≤ 2000 nM
2,CC(=O)N1N=C(N2CCCC2=O)SC1(CNS(C)(=O)=O)c1ccccc1 (stereo not shown) [Compound 152],≤ 2000 nM
3,CC(=O)N1N=C(N2CCCCC2=O)SC1(CNS(C)(=O)=O)c1ccccc1 (stereo not shown) [Compound 154],≤ 2000 nM
4,C=CS(=O)(=O)NCC1(c2ccccc2)SC(NC(=O)C(C)(C)C)=NN1C(=O)C(C)(C)C (stereo not shown) [Compound 171],≤ 2000 nM
5,CC(=O)N1N=C(NC(=O)C(C)(C)C)SC1(CNS(=O)(=O)CCN(C)C)c1ccccc1 (stereo not shown) [Compound 174],≤ 2000 nM
6,CCNCCS(=O)(=O)NCC1(c2ccccc2)SC(NC(=O)C(C)(C)C)=NN1C(=O)C(C)(C)C (stereo not shown) [Compound 176],≤ 2000 nM
7,CC(C)(C)C(=O)NC1=NN(C(=O)C(C)(C)C)C(CCN)(c2ccccc2)S1 (stereo not shown) [Compound 210],≤ 2000 nM
8,CC(C)(C)C(=O)NC1=NN(C(=O)C(C)(C)C)C(CNS(=O)(=O)CCCN)(c2ccccc2)S1 (stereo not shown) [Compound 221],≤ 2000 nM
9,CN(C)CCCS(=O)(=O)NCC1(c2ccccc2)SC(NC(=O)C(C)(C)C)=NN1C(=O)C(C)(C)C (stereo not shown) [Compound 238],≤ 2000 nM
10,CCN(C)CCS(=O)(=O)NCC1(c2ccccc2)SC(NC(=O)C(C)(C)C)=NN1C(=O)C(C)(C)C (stereo not shown) [Compound 264],≤ 2000 nM

# Now from value to compound:
row,IC50,SMILES
1,≤ 2000 nM,CC(C)(C)C(=O)NC1=NN(C(=O)C(C)(C)C)C(CNS(C)(=O)=O)(c2ccccc2)S1 (stereo not shown) [Compound 95]
2,≤ 2000 nM,CCS(=O)(=O)NCC1(c2ccccc2)SC(NC(=O)C(C)(C)C)=NN1C(=O)C(C)(C)C (stereo not shown) [Compound 97]
3,≤ 2000 nM,CC(C)C(=O)NC1=NN(C(=O)C(C)C)C(CCNS(C)(=O)=O)(c2ccccc2)S1 (stereo not shown) [Compound 100]
4,≤ 2000 nM,CN(C)CCC1(c2ccccc2)SC(NC(=O)C(C)(C)C)=NN1C(=O)C(C)(C)C (stereo not shown) [Compound 104]
5,≤ 2000 nM,CC(C)(C)C(=O)NC1=NN(C(=O)C(C)(C)C)C(CCC(N)=O)(c2ccccc2)S1 (stereo not shown) [Compound 107]
6,≤ 2000 nM,CC(C)(C)C(=O)NC1=NN(C(=O)C(C)(C)C)C(CCC(=O)NCCO)(c2ccccc2)S1 (stereo not shown) [Compound 111]
